Legend:
barnyardgrass [1] = experiment: Test B pre-/postemergence herbicide test; assay type: in vivo, Echinochloa crus-galli
Outline: (§1)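 Pre: seeds sown, then sprayed. Post: 1–4-leaf plants (2–18 cm) sprayed at the same time. Paddy: flooded, treated at 2-leaf stage. Formulation: non-phytotoxic solvent with surfactant. Greenhouse 13–15 days; visual 0–100 score relative to controls.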

Surinam grass = experiment: Test B pre-/postemergence herbicide test; assay type: in vivo, Urochloa decumbens
Outline: (§2)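 Evaluation is visual, comparing treated with control plants on a scale where 0 means no effect and 100 means full control. Treatments were preemergence, or postemergence on seedlings 2–18 cm tall, and held 13–15 days in the greenhouse.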

cocklebur = experiment: Test B pre-/postemergence herbicide test; assay type: in vivo, Xanthium strumarium
Outline: as §1

corn = experiment: Test B pre-/postemergence herbicide test; assay type: in vivo, Zea mays
Outline: as §2

large crabgrass = experiment: Test B pre-/postemergence herbicide test; assay type: in vivo, Digitaria sanguinalis
Outline: as §2

giant foxtail = experiment: Test B pre-/postemergence herbicide test; assay type: in vivo, Setaria faberi
Outline: as §2

lambsquarters = experiment: Test B pre-/postemergence herbicide test; assay type: in vivo, Chenopodium album
Outline: as §2

morningglory = experiment: Test B pre-/postemergence herbicide test; assay type: in vivo, Ipomoea coccinea
Outline: as §1

pigweed = experiment: Test B pre-/postemergence herbicide test; assay type: in vivo, Amaranthus retroflexus
Outline: as §2

velvetleaf = experiment: Test B pre-/postemergence herbicide test; assay type: in vivo, Abutilon theophrasti
Outline: as §2

wheat = experiment: Test B postemergence herbicide test; assay type: in vivo, Triticum aestivum; parameters: key to Wheat plant response rating: 0 = no effect, 100 = complete control; details: scale 0 (no effect) to 100 (complete control); for Wheat plant response rating: postemergence, visual rating; for Plant response rating, Wheat: Postemergence, visual rating after 13 to 15 days
Outline: (§3)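 Postemergence plants were sprayed with formulated test chemicals at 2 to 18 cm height (1- to 4-leaf stage); paddy species were grown to the 2-leaf stage. After 13 to 15 days in a greenhouse, injury was rated visually against untreated controls on a 0–100 scale (0 = no effect, 100 = complete control).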

wild oat = experiment: Test B postemergence herbicide test; assay type: in vivo, Avena fatua; details: scale 0 (no effect) to 100 (complete control); for Plant response rating, Oat, Wild: visual rating after 13 to 15 days
Outline: as §3

rice = experiment: Test B flooded paddy test; assay type: in vivo, Oryza sativa; details: 1000 g ai/ha, visual rating, scale 0 to 100 (0 no effect, 100 complete control), 13 to 15 days
Outline: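 Each value is a visual 0–100 response rating taken against controls 13 to 15 days after treatment in the greenhouse. Plants received formulated chemical postemergence at the 1- to 4-leaf stage or, in flooded paddy, at the 2-leaf stage.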

ducksalad = experiment: Test B flooded paddy test; assay type: in vivo, Heteranthera limosa; details: 1000 g ai/ha, visual rating, scale 0 to 100 (0 no effect, 100 complete control), 13 to 15 days
Outline: (§4)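 Read-out: visual comparison with controls, scored 0 to 100, where 100 means complete control and 0 no effect. Formulated chemicals were applied postemergence to plants 2–18 cm tall (1- to 4-leaf), or to flooded-paddy plants at the 2-leaf stage, then held 13 to 15 days under glass.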

barnyardgrass [2] = experiment: Test B flooded paddy test; assay type: in vivo, Echinochloa crus-galli; details: 1000 g ai/ha, visual rating, scale 0 to 100 (0 no effect, 100 complete control), 13 to 15 days
Outline: as §4

[3] = 500 g ai/ha, visual rating 0-100, 0 no effect, 100 complete control, preemergence
[4] = postemergence, 125 g ai/ha, visual rating, scale 0 (no effect) to 100 (complete control)
[5] = postemergence, 500 g ai/ha, visual rating, scale 0 (no effect) to 100 (complete control)
[6] = preemergence, 125 g ai/ha, 0 to 100 scale, 0 is no effect, 100 is complete control
[7] = postemergence, 125 g ai/ha, visual rating
[8] = Postemergence, 500 g ai/ha, visual rating after 13 to 15 days, scale 0 (no effect) to 100 (complete control)
[9] = Preemergence, 500 g ai/ha, scale 0 to 100
[10] = Postemergence, 125 g ai/ha, scale 0 (no effect) to 100 (complete control)

CCN(CC)C(=O)c1ccnc(NC(=O)c2cc(C(C)(C)C)nn2CC)c1 [Compound 153]
70: Plant response rating, Surinam Grass (Surinam grass; [3]) | Morningglory plant response rating (morningglory; [5]) | Pigweed plant response rating (pigweed; [5])
50: Cocklebur plant response rating (cocklebur; [4]) | Plant response rating, Crabgrass, Large (large crabgrass; [6]) | Plant response rating, Foxtail, Giant (giant foxtail; [3]) | Velvetleaf plant response rating (velvetleaf; [4]) | Oat, Wild plant response rating (wild oat; postemergence, 500 g ai/ha, visual rating)
100: Cocklebur plant response rating (cocklebur; [5]) | Plant response rating, Lambsquarters (lambsquarters; [3]) | Plant response rating, Lambsquarters (lambsquarters; [6]) | Plant response rating, Pigweed (pigweed; [3]) | Plant response rating, Pigweed (pigweed; [6]) | Plant response rating, Velvetleaf (velvetleaf; [3])
10: Plant response rating, Surinam Grass (Surinam grass; [6]) | Corn plant response rating (corn; [4]) | Crabgrass, Large plant response rating (large crabgrass; [4]) | Foxtail, Giant plant response rating (giant foxtail; [4]) | Plant response rating, Morningglory (morningglory; [3]) | Morningglory plant response rating (morningglory; [4]) | Wheat plant response rating (wheat; 500 g ai/ha)
90: Plant response rating, Barnyardgrass (barnyardgrass [1]; [3])
20: Plant response rating, Corn (corn; [3]) | Corn plant response rating (corn; [5]) | Crabgrass, Large plant response rating (large crabgrass; [5]) | Foxtail, Giant plant response rating (giant foxtail; [5]) | Pigweed plant response rating (pigweed; [4]) | Oat, Wild plant response rating (wild oat; [7])
40: Plant response rating, Velvetleaf (velvetleaf; [6]) | Barnyardgrass plant response rating (barnyardgrass [2])
0: Plant response rating, Cocklebur (cocklebur; [3]) | Plant response rating, Cocklebur (cocklebur; [6]) | Plant response rating, Corn (corn; [6]) | Plant response rating, Foxtail, Giant (giant foxtail; [6]) | Plant response rating, Morningglory (morningglory; [6])
80: Plant response rating, Crabgrass, Large (large crabgrass; [3]) | Lambsquarters plant response rating (lambsquarters; [4]) | Lambsquarters plant response rating (lambsquarters; [5]) | Ducksalad plant response rating (ducksalad)
30: Barnyardgrass plant response rating (barnyardgrass [1]; [4]) | Barnyardgrass plant response rating (barnyardgrass [1]; [5]) | Surinam Grass plant response rating (Surinam grass; [4]) | Surinam Grass plant response rating (Surinam grass; [5])
60: Plant response rating, Barnyardgrass (barnyardgrass [1]; [6]) | Velvetleaf plant response rating (velvetleaf; [5]) | Rice plant response rating (rice)

C=CCn1nc(C(C)(C)C)cc1C(=O)Nc1cccc(C(=O)NCC)c1 [Compound 56]
80: Barnyardgrass plant response rating (barnyardgrass [1]; [9]) | Plant response rating, Cocklebur (cocklebur; [8]) | Cocklebur plant response rating (cocklebur; [4]) | Lambsquarters plant response rating (lambsquarters; [4]) | Ducksalad plant response rating (ducksalad) | Barnyardgrass plant response rating (barnyardgrass [2])
90: Plant response rating, Lambsquarters (lambsquarters; [8]) | Plant response rating, Pigweed (pigweed; [8])
50: Plant response rating, Barnyardgrass (barnyardgrass [1]; [6]) | Plant response rating, Velvetleaf (velvetleaf; [8])
40: Velvetleaf plant response rating (velvetleaf; [4])
10: Crabgrass, Large plant response rating (large crabgrass; [4]) | Wheat plant response rating (wheat; 125 g ai/ha)
30: Plant response rating, Surinam Grass (Surinam grass; [8]) | Plant response rating, Surinam Grass (Surinam grass; [6]) | Plant response rating, Corn (corn; [8]) | Plant response rating, Pigweed (pigweed; [6])
20: Plant response rating, Barnyardgrass (barnyardgrass [1]; [8]) | Barnyardgrass plant response rating (barnyardgrass [1]; [4]) | Surinam Grass plant response rating (Surinam grass; [4]) | Cocklebur plant response rating (cocklebur; [9]) | Corn plant response rating (corn; [9]) | Corn plant response rating (corn; [4]) | Plant response rating, Crabgrass, Large (large crabgrass; [8]) | Plant response rating, Foxtail, Giant (giant foxtail; [8]) | Foxtail, Giant plant response rating (giant foxtail; [4]) | Plant response rating, Morningglory (morningglory; [8]) | Morningglory plant response rating (morningglory; [9]) | Plant response rating, Morningglory (morningglory; [6]) | Plant response rating, Wheat (wheat; 500 g ai/ha) | Plant response rating, Oat, Wild (wild oat; Postemergence, 500 g ai/ha) | Oat, Wild plant response rating (wild oat; [7])
70: Plant response rating, Crabgrass, Large (large crabgrass; [6]) | Rice plant response rating (rice)
0: Plant response rating, Cocklebur (cocklebur; [6]) | Plant response rating, Corn (corn; [6]) | Morningglory plant response rating (morningglory; [4]) | Plant response rating, Velvetleaf (velvetleaf; [6])
60: Surinam Grass plant response rating (Surinam grass; [9]) | Plant response rating, Foxtail, Giant (giant foxtail; [6]) | Pigweed plant response rating (pigweed; [4])
100: Crabgrass, Large plant response rating (large crabgrass; [9]) | Foxtail, Giant plant response rating (giant foxtail; [9]) | Lambsquarters plant response rating (lambsquarters; [9]) | Plant response rating, Lambsquarters (lambsquarters; [6]) | Pigweed plant response rating (pigweed; [9]) | Velvetleaf plant response rating (velvetleaf; [9])

C=Cn1nc(C(C)(C)C)cc1C(=O)Nc1cccc(C(=O)N(CC)CC)c1 [Compound 34]
0: Corn plant response rating (corn; [9]) | Plant response rating, Morningglory (morningglory; [6])
40: Cocklebur plant response rating (cocklebur; [10])
50: Plant response rating, Surinam Grass (Surinam grass; [8]) | Plant response rating, Velvetleaf (velvetleaf; [8]) | Rice plant response rating (rice)
20: Barnyardgrass plant response rating (barnyardgrass [1]; [10]) | Plant response rating, Surinam Grass (Surinam grass; [6]) | Crabgrass, Large plant response rating (large crabgrass; [10]) | Plant response rating, Crabgrass, Large (large crabgrass; [8]) | Morningglory plant response rating (morningglory; [9]) | Plant response rating, Velvetleaf (velvetleaf; [6])
80: Barnyardgrass plant response rating (barnyardgrass [1]; [9]) | Surinam Grass plant response rating (Surinam grass; [9]) | Lambsquarters plant response rating (lambsquarters; [10]) | Plant response rating, Lambsquarters (lambsquarters; [6]) | Ducksalad plant response rating (ducksalad) | Barnyardgrass plant response rating (barnyardgrass [2])
10: Cocklebur plant response rating (cocklebur; [9]) | Oat, Wild plant response rating (wild oat; Postemergence, 125 g ai/ha) | Plant response rating, Oat, Wild (wild oat; Postemergence, 500 g ai/ha)
100: Crabgrass, Large plant response rating (large crabgrass; [9]) | Lambsquarters plant response rating (lambsquarters; [9]) | Pigweed plant response rating (pigweed; [9]) | Plant response rating, Pigweed (pigweed; [6])
60: Velvetleaf plant response rating (velvetleaf; [9])
90: Plant response rating, Cocklebur (cocklebur; [8]) | Foxtail, Giant plant response rating (giant foxtail; [9]) | Plant response rating, Lambsquarters (lambsquarters; [8]) | Plant response rating, Pigweed (pigweed; [8])
30: Plant response rating, Barnyardgrass (barnyardgrass [1]; [8]) | Foxtail, Giant plant response rating (giant foxtail; [10]) | Plant response rating, Foxtail, Giant (giant foxtail; [8]) | Plant response rating, Foxtail, Giant (giant foxtail; [6]) | Plant response rating, Wheat (wheat; 500 g ai/ha)
